Laboratory results from patent US4760087A, “Phenol derivatives and pharmaceutical compositions containing these compounds” (Gruenenthal GmbH, priority 1985, dated 1988).

Legend:
Sprague-Dawley-rats [1] = assay: Inhibition of kaolin-induced paw oedema, test compound injected in each paw simultaneously with kaolin; format: in vivo; conditions: 1 mg injected in each paw simultaneously with kaolin
Procedure: (§1) By subplantar injection of 0.1 ml of a kaolin suspension (100 mg/ml) into Sprague-Dawley-rats, an oedema is induced and the paw volume is measured plethysometrically every hour. Three hours after the induction of the oedema a suspension of the respective test compound in a 1% carboxymethylcellulose sodium solution (5 ml/kg body weight of the animal) is administered intraperitoneally. In table 2 the percentage of alteration in the paw volume due to the inhibition of the oedema by the test compound in relation to the volume determined immediately before the test compound was applied (i.e. the initial value) is shown. (FIGS. of more than 100% indicate a decrease in the volume of the oedema below the initial value):
In other experiments the test compound was administered simultaneously with the application of the kaolin suspension by injection of 1 mg of the test compound dissolved in 0.1 ml of a 1% carboxymethylcellulose sodium solution in each paw. The following maximum values of inhibition of the oedema or the formation of the oedema, respectively, were determined: […]

5-lipoxygenase = molecular target: T1, 5-lipoxygenase (Rattus norvegicus, UniProt P12527); assay: Inhibition of 5-lipoxygenase in rat basophilic leukemia cells (5-HETE and LTB4 formation from [14C]-arachidonic acid); format: cell-based; conditions: indomethacin 10 μM, A 23187, room temperature, 5 minutes, read-out: IC50 for inhibition of 5-lipoxygenase (I)
T1 construct: endogenous in cells; host or cells: rat basophilic leukemia cells
T1 sequence (P12527 1-673): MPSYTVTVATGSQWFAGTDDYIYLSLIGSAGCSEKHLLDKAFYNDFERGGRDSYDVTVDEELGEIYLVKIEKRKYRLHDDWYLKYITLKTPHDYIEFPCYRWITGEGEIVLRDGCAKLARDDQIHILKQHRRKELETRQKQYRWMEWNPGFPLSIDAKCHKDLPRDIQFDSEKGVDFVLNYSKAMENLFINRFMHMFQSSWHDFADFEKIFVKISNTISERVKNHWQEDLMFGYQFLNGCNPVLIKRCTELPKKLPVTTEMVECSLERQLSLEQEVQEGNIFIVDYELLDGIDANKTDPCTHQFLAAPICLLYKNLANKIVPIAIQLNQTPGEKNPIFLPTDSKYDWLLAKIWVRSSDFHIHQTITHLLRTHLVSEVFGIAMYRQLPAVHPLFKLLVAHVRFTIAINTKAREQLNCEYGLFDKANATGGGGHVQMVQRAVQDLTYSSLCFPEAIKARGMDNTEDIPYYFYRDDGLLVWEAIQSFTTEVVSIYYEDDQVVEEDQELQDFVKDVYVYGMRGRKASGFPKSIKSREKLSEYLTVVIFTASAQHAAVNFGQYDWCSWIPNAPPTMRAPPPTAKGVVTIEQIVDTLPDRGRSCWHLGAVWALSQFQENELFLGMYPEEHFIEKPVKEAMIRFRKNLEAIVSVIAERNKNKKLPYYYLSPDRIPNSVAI
Procedure: To determine the inhibition of 5-lipoxygenase rat basophilic leukemia cells were cultured in vitro, and after a cell concentration of about 10^6 cells/ml had been obtained, the cells were harvested by centrifugation at 400 g. The precipitate was suspended in 50 mM potassium phosphate buffer of pH 7.4 at 1.5×10^7 cells/ml.
To 1 ml each of this suspension there was added indomethacin (10 μM) and calcium chloride (2 mM) and then the mixture was incubated in presence or absence of a test compound with [^14 C]-arachidonic acid and the calcium ionophore A 23 187 [Chaney et al., J. Am. Chem. Soc. 96: 1932-3 (1974)] at room temperature for 5 minutes. The mixture was acidified to pH 5 and extracted with ethyl acetate to isolate the metabolites of arachidonic acid formed by the enzymatic action of 5-lipoxygenase. These were separated by thin layer chromatography using a solvent mixture known to be suitable for leukotriene analysis [c.f. Jakschik et al., Biochem. Biophys. Res. Commun. 102, 624 (1984)]. The distribution of the radioactivity among the different metabolites was measured with a Thin Layer Scanner (TLC linear analyzer). By bringing into relationship the percentages of the amount of 5-hydroxyeicosatetraenoic acid (5-HETE) and leukotriene B4 (LTB4) formed under the action of 5-lipoxygenase to the amount or the concentration, respectively, of the total radioactivity used and of the test compound of formula I the "IC50 -value I" (i.e. the concentration of the test compound which causes an 50%-inhibition of the 5-lipoxygenase) is determined.

cyclooxygenase = molecular target: T2, cyclooxygenase (Ovis aries, UniProt P05979); assay: Inhibition of cyclooxygenase in sheep seminal vesicle microsomes; format: biochemical; conditions: for Quotient IC50 II/IC50 I: cyclooxygenase IC50 (II) / 5-lipoxygenase IC50 (I); for IC50: sheep seminal vesicle microsomes, pH 7.5, 10 minutes, room temperature, read-out: IC50 for inhibition of cyclooxygenase (II)
T2 construct: suspension of sheep seminal vesicle microsomes; from tissue; host or cells: sheep seminal vesicle microsomes
T2 sequence (P05979 25-600): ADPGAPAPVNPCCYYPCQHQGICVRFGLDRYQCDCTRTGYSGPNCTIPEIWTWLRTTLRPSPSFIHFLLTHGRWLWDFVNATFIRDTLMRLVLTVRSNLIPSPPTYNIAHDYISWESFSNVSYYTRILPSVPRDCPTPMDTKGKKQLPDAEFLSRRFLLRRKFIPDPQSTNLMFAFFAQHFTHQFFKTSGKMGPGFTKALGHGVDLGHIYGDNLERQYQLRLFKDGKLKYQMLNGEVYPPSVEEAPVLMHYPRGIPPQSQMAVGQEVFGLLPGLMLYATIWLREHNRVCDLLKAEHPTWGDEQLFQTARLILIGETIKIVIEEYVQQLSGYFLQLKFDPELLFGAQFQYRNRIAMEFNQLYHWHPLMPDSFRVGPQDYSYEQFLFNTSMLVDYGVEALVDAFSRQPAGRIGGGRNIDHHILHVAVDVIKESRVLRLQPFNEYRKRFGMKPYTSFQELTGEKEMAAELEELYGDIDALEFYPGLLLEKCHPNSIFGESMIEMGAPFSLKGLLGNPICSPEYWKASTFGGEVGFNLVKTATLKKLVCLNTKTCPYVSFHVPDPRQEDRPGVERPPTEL
Procedure: The effect of the test compounds on the activity of cyclooxygenase was tested usinfg a suspension of sheep seminal vesicle microsomes in 50 mM potassium phosphate buffer of pH 7.5 which was incubated for 10 minutes at room temperature with the test compound and [^14 C]-arachidonic acid. After acidification with glacial acetic acid the mixture was extracted with ethyl acetate and the residue obtained after evaporation of the extract separated by thin layer chromatography on plates precoated with silica gel using the solvent system ether/hexane/glacial acetic acid (50:50:1).

Sprague-Dawley-rats [2] = assay: Inhibition of kaolin-induced paw oedema, test compound given intraperitoneally three hours after induction; format: in vivo; conditions: for % Inhibition (Maximum) of oedema: 3 h after kaolin, more than 100% = decrease below initial value
Procedure: as §1, with “value): […]” for “value):”

Compound	IC50 (5-lipoxygenase) [nM]	Quotient IC50 II/IC50 I (cyclooxygenase)	IC50 (cyclooxygenase) [nM]	% Inhibition (Maximum) of oedema (Sprague-Dawley-rats [1]) [%]	Time after administration of the test compound (of maximum inhibition) (Sprague-Dawley-rats [1]) [h]	Time after administration of the test compound (of maximum inhibition) (Sprague-Dawley-rats [2]; 46.4 mg/kg intraperitoneally) [h]	% Inhibition (Maximum) of oedema (Sprague-Dawley-rats [2]; 46.4 mg/kg intraperitoneally) [%]	Time after administration of the test compound (of maximum inhibition) (Sprague-Dawley-rats [2]; 100.0 mg/kg intraperitoneally) [h]	% Inhibition (Maximum) of oedema (Sprague-Dawley-rats [2]; 100.0 mg/kg intraperitoneally) [%]
COc1cc(C#CCCCCCCC#CCO)ccc1O [Example 5, 11-Hydroxy-1-(4'-hydroxy-3'-methoxyphenyl)-undeca-1,9-diyne]				61	3				
OC/C=C\CCCCCC/C=C\c1ccc(O)c(O)c1 [Example 9, 1-(3',4'-Dihydroxyphenyl)-11-hydroxy-undeca-1Z,9Z-diene]	310	90.3	28000						
COc1cc(C#CCCCCCCC#CCO)cc(OC)c1O [Example 18, 1-(3',5'-Dimethoxy-4'-hydroxyphenyl)-11-hydroxy-undeca-1,9-diyne]	100	380.0	38000						
Oc1ccc(/C=C\CCCCCC/C=C/C(O)C2CCCCC2)cc1O (stereo not shown) [Example 22d, 11-Cyclohexyl-1-(3',4'-dihydroxyphenyl)-11-hydroxy-undeca-1Z,9E-diene]	2800	64.3	180000						

Further lines, with some results ahead:

IC50 (5-lipoxygenase) [nM]	Quotient IC50 II/IC50 I (cyclooxygenase)	IC50 (cyclooxygenase) [nM]	Compound	% Inhibition (Maximum) of oedema (Sprague-Dawley-rats [1]) [%]	Time after administration of the test compound (of maximum inhibition) (Sprague-Dawley-rats [1]) [h]	Time after administration of the test compound (of maximum inhibition) (Sprague-Dawley-rats [2]; 46.4 mg/kg intraperitoneally) [h]	% Inhibition (Maximum) of oedema (Sprague-Dawley-rats [2]; 46.4 mg/kg intraperitoneally) [%]	Time after administration of the test compound (of maximum inhibition) (Sprague-Dawley-rats [2]; 100.0 mg/kg intraperitoneally) [h]	% Inhibition (Maximum) of oedema (Sprague-Dawley-rats [2]; 100.0 mg/kg intraperitoneally) [%]
150	253.3	38000	OCC#CCCCCCCC#Cc1ccc(O)c(O)c1 [Example 7, 1-(3',4'-Dihydroxyphenyl)-11-hydroxy-undeca-1,9-diyne]	36	2	1	65	1	164
350	88.6	31000	CC(C)(O)C#CCCCCCCC#Cc1ccc(O)c(O)c1 [Example 13, 1-(3',4'-Dihydroxyphenyl)-11-hydroxy-11-methyl-dodeca-1,9-diyne]						
210	119.1	25000	CCCCCC(O)C#CCCCCCCC#Cc1ccc(O)c(O)c1 (stereo not shown) [Example 14, 1-(3',4'-Dihydroxyphenyl)-11-hydroxy-hexadeca-1,9-diyne]	46	2	1	68	2	127
320	> 320.0	> 100000	Oc1ccc(C#CCCCCCCC#CC(O)c2ccccc2)cc1O (stereo not shown) [Example 15, 1-(3',4'-Dihydroxyphenyl)-11-hydroxy-11-phenyl-undeca-1,9-diyne]	64	5			2	73
280	132.1	37000	Oc1ccc(C#CCCCCCCC#CC(O)C2CCCCC2)cc1O (stereo not shown) [Example 16, 11-Cyclohexyl-1-(3',4'-dihydroxyphenyl)-11-hydroxy-undeca-1,9-diyne]	45	7			1	54
2900	44.8	130000	Oc1ccc(C#CCCCCCC/C=C/C(O)C2CCCCC2)cc1O (stereo not shown) [Example 22c, 11-Cyclohexyl-1-(3',4'-dihydroxphenyl)-11-hydroxy-undec-9E-en-1-yne]						
